These results are taken from patent publication US8975246B2, “Bile acid or bile salt fatty acid conjugates” (Galmed Research and Development Ltd., priority 2001, dated 2015).

Common to all, as to type: in vivo
For one experiment, the system named is human patients. Description: Human study: change in HOMA (insulin resistance). Particulars: for Change in HOMA from Baseline, Max / Change in HOMA from Baseline, Mean / Change in HOMA from Baseline, Median / Change in HOMA from Baseline, Min: 3 months. The protocol:
The effects of BAFACs on disorders associated with Fatty liver, insulin resistance and altered glucose metabolism were tested on 60 human patients. Experiments were subdivided to 2 dosage regimens: Aramchol 300 mg daily (high dose) and 100 mg daily (low dose) respectively for a total period time of 3 months. The Aramchol:placebo ratio is of 2:1 for the low dose arm, and 1:1 for the high dose arms.
The study period included a 3 month treatment period with Aramchol low dose, or Aramchol high dose, or placebo, and a one month follow-up period. Aramchol was given daily orally. During the treatment period, all patients attended periodic […] (at first month) and subsequently monthly study-center visits in order to assess safety and efficacy of the treatment.
The results are shown using two known in the art principle statistical evaluation on, Intention-To-Treat (ITT) and Per Protocol (PP) populations. The ITT principle asserts that the effect of a treatment policy can be best assessed by evaluation on the basis of the intention to treat a subject (i.e. the planned treatment regimen) rather than the actual treatment given. It has the consequence that subjects allocated to a treatment group should be followed up, assessed and analyzed as members of that group irrespective of their compliance to the planned course of treatment. […] Compliance covers such considerations as exposure to treatment, availability of measurements and absence of major protocol violations.
Homeostatic model assessment (HOMA) is a method used to quantify insulin resistance and beta-cell function. The Dunnett method is used for multiple comparisons with a control group, and adjusts the data by age, gender, diagnosis, baseline HbA1c and baseline weight.

The test system of a further experiment is ICR male mice. Description: Fasting blood glucose, streptozotocin treated mice (IDDM model). The following applies: Streptozotocin 200 mg/kg i.p., regular diet, BAFAC 150 mg/kg/day by gavage, 16 days. The protocol: (§1) The effects of BAFACs on fasting blood glucose were tested in 3 animal species: Hamsters, Rats and Mice. The animals were kept on regular or high fat diets (as specified). In each group half of the animals received a daily BAFAC dose (150 mg/kg) dispersed in 0.5 ml of saline by gavage. The other half received similarly, by gavage, an equal volume of saline only. All animals were kept on a 12 hr day/night cycle at 22° C. throughout the experiment. They had access to water ad libidum.
ICR male mice, 4 weeks old (approx. 20 gm) were fed a regular diet. Streptozotocin 200 mg/kg was injected i.p. on the first day of the experiment. (This induced damage to the islet cells of the pancreas and simulated IDDM). Fasting blood glucose was obtained from sacrificed animals after 16 days of the trial. There were 3 groups of 7 animals each. Controls—regular diet only. Streptozotocin (Stz) treated animals receiving saline only by gavage and streptozocin treated animals receiving 150 mg/kg/day of BAFAC by gavage. The BAFAC used in all these hyperglycemia studies was a conjugate of arachidic and cholic acid (at position 3) using an amide bond (C-20 BAFAC, Aramchol).

A further experiment relates to C57 male inbred mice. Description: Fatty liver histologic score, mice on Western diet. Particulars: Western diet + BAFAC 150 mg/kg/day, 4 W. The protocol:
The presence of fatty liver was evaluated by a pathologist unaware of the treatments, scoring coded slides in a blinded manner.
The scoring system was as follows:
C57 male inbred mice (Jackson Lab., Maine, USA) 4-6 weeks old weighing 20-25 gm were used. They were fed a “Western” diet (George et. al. Circulation 2000, 102:1822-27) containing cholesterol 1.5 gm/kg and Fat 42%, Carbohydrates 43%, and Protein 15% (as % of calories). Half were given in addition 150 mg/kg/day of 3β-arachidylamido-7α,12α-dihydroxy-5β-cholan-24-oic acid suspended in saline by intragastric gavage. The other half were similarly given saline only. After 4 weeks the animals were anesthetized and sacrificed. Liver and other organs were removed and placed in formaline prior to histologic examination

Experiment [1] deals with Golden Syrian Male Hamsters. Briefly: Fasting blood glucose, hamsters on fatty liver diet (NIDDM model). Particulars: BAFAC 150 mg/kg/day by gavage, 3 weeks, vs saline. The protocol: as §1
Golden Syrian male hamsters 4 weeks old (90-100 gm) were fed a fatty liver diet consisting of cholesterol (1%), palmitic acid (1.2%), butter (6%), lard (10%), and corn oil (2%) added (w/w) to their regular diet. Blood glucose was measured at sacrifice in the fasting state after 3 weeks of the trial. There were 5 control and 5 test animals.
The hamsters and rats on the high fat diets developed fatty liver (confirmed by chemical measurement of liver fat), a high fasting blood glucose, and represented models of NIDDM.
ICR male mice, 4 weeks old (approx. 20 gm) were fed a regular diet. Streptozotocin 200 mg/kg was injected i.p. on the first day of the experiment. (This induced damage to the islet cells of the pancreas and simulated IDDM). Fasting blood glucose was obtained from sacrificed animals after 16 days of the trial. There were 3 groups of 7 animals each. Controls—regular diet only. […]

Molecules are shown by their SMILES.

With `CCCCCCCCCCCCCCCCCCCC(=O)N[C@H]1CC[C@@]2(C)[C@@H](C1)C[C@@H](O)[C@@H]1[C@@H]2C[C@H](O)[C@]2(C)[C@@H]([C@H](C)CCC(=O)O)CC[C@@H]12` [Aramchol, 3β-arachidylamido-7α,12α-dihydroxy-5β-cholan-24-oic acid], the “Change in HOMA from Baseline, Max” value with human patients (Aramchol 100 mg/d oral, ITT) stood at 11.70; in the experiment on human patients (Aramchol 100 mg/d oral, PP) it was 11.70; in the experiment with human patients (Aramchol 300 mg/d oral, ITT), 2.80; in the experiment on human patients (Aramchol 300 mg/d oral, PP), 2.80. The “Change in HOMA from Baseline, Mean” value in the experiment with human patients (Aramchol 100 mg/d oral, ITT) is 1.25; with human patients (Aramchol 100 mg/d oral, PP) it was 1.13; with human patients (Aramchol 300 mg/d oral, ITT), −7.74; in the experiment with human patients (Aramchol 300 mg/d oral, PP), −7.74. Moreover, the “Change in HOMA from Baseline, Median” value with human patients (Aramchol 100 mg/d oral, ITT) was 0.20; in the experiment on human patients (Aramchol 100 mg/d oral, PP), 0.20; in the experiment on human patients (Aramchol 300 mg/d oral, ITT) it was 0.20; in the experiment with human patients (Aramchol 300 mg/d oral, PP), 0.20. For the same compound, the “Change in HOMA from Baseline, Min” value in the experiment on human patients (Aramchol 100 mg/d oral, ITT) is recorded as −2.00; in the experiment on human patients (Aramchol 100 mg/d oral, PP), −2.00; in the experiment with human patients (Aramchol 300 mg/d oral, ITT), −139.60; in the experiment on human patients (Aramchol 300 mg/d oral, PP), −139.60. Besides, the “insulin resistance (in words)” value in the experiment with human patients (Aramchol 300 mg/d, tested subjects, Tables 3 and 4) is given as “reduces insulin resistance”. Also, the fasting blood glucose entry (in the experiment on ICR male mice; in experiment [1]) was “markedly reduced” throughout. The “Fatty Liver Scores: number of animals with score 0” value in the experiment with C57 male inbred mice (n 14, 0 - No fatty liver) was 12. Moreover, in the experiment with C57 male inbred mice (n 14, 1 - Minimal fatty liver), the “Fatty Liver Scores: number of animals with score 1” value came to 1. Moreover, the “Fatty Liver Scores: number of animals with score 4” value in the experiment with C57 male inbred mice (n 14, 4 - Severe fatty liver) was 1. Moreover, the “Fatty Liver Score, mean” value in the experiment on C57 male inbred mice (score 0 (no fatty liver) to 4 (severe, >50% of liver surface)) was 0.35.
